Experimental data as given in patent publication US20110009335A1, “Anticancer Treatments” (priority 2008, published 2011).
Starred links: 1 amine or outer side, 2 acyl side, 3 side chain; linkers in the order of their positions; H or OH if unused. Positions of bridges follow the written chain, without caps; N, C: chain ends. Non-standard residues stand in square brackets, D forms with d. Residues, ends and D or L forms follow the SMILES beside them. *: point of attachment. X1 = CC[C@H](C)[C@@H](N[*:1])[C@@H](O)CC(=O)O[C@H](C(=O)[C@H](C)C(=O)[*:2])C(C)C; NMeY = CN[C@@H](Cc1ccc(O)cc1)C(=O)O; dNMeL = CN[C@H](CC(C)C)C(=O)O; Pyruvoyl = CC(=O)C(=O)*

What was measured:
[1] = tested on: AML and ALL samples from pediatric patients; conditions: de novo or relapsed ALL and AML; cited from earlier work
[2] = tested on: CAKI-1 human renal tumor xenograft; assay: Aplidine with sunitinib, CAKI-1 xenograft in athymic nude mice (Example 2); assay type: in vivo; conditions: doses and schedules tested
Method: (§1) Female athymic nude mice (Harlan Sprague Dawley, Madison, Wis.) were utilized for all experiments. Mice were implanted with tumor fragments or a cell suspension when mice were 5 weeks of age. Animals were housed in ventilated rack caging, 5 mice per cage, with food and water ad libitum. The mice were acclimated for 1 week prior to being implanted with tumor fragments or cell suspensions.
Cells from in vitro passage 4-20 were implanted SC into study mice: 5×10^6 cells/mouse in 0.2 ml 50% Matrigel/50% medium without antibiotics or serum, using a 23 G needle and 1 cc syringe. Bacterial cultures were performed on aliquots of the cells prepared for implantation.
(§2) Tumor measurements were determined as disclosed in Example 1.
Body weights were recorded on treatment days and when tumor sizes were measured. In those days wherein the two drugs were administered the same day, the combination therapy groups were treated by co-administering the two drugs at the same time, with no attempt to sequence the treatments. […]
(§3) Tumor size measurements were recorded twice weekly from the treatment initiation until the termination of the study.
(§4) Mean, standard deviation and standard error of the mean were determined for tumor volume for all animal groups at all assessments. […]

[3] = tested on: MRI-H-121 human renal tumor xenograft; assay: Aplidine with sunitinib, MRI-H-121 xenograft in athymic nude mice (Example 2); assay type: in vivo; conditions: doses and schedules tested
Method: as §1, §2
(§5) Body weights were recorded on treatment days and when tumor sizes were measured. In those days wherein the two drugs were administered the same day, the combination therapy groups were treated by co-administering the two drugs at the same time, with no attempt to sequence the treatments.
(§6) Aplidine was provided in the form of vials of lyophilized aplidine powder which was reconstituted in Cremophor EL/ethanol/water (CEW) 15/15/70 to a concentration of 0.5 mg/ml. The aplidine solution in CEW was diluted in 0.9% Saline to the dosing formulation concentrations, being the final proportion of CEW of 0.18/0.18/0.84. […]
as §3, §4

[4] = tested on: LOX-IMVI human melanoma xenograft; assay: Aplidine with sorafenib, LOX-IMVI xenograft in athymic nude mice (Example 7); assay type: in vivo; conditions: for % Inhibition G2: aplidine 0.06 mg/kg/day; for antitumor activity as single agent (monotherapy): doses tested; for % Inhibition G4: sorafenib 30 mg/kg/day; for % Inhibition G3: sorafenib 60 mg/kg/day
Source text: Female athymic nude mice (Harlan Sprague Dawley, Madison, Wis.) were utilized for all experiments. Mice were implanted with a tumor fragment when mice were 6-8 weeks of age. Animals were housed in ventilated rack caging with food and water ad libitum. The mice were acclimated for at least 5 days prior to tumor implantation.
The tumor model used in this study was LOX-IMVI, which is a human melanoma cell line obtained from the Department of Developmental Therapeutics, National Cancer Institute (NCI). Animals were implanted subcutaneously (SC) on the right flank, using a 13 gauge trocar, with 2 mm^3 of tissue tumor fragments of LOX-IMVI, from an in vivo transplantable line passage 1, using sterile Earle's Balanced Salt solution as a wetting agent.
Tumor measurements were determined as disclosed in Example 1. When tumor growth was within an average size range of 130±44 mg (mean±SD), mice were randomized into the treatment and control groups based on tumor weight by using LabCat® In Life module V 8.0 SP1 tumor tracking and measurement software.
as §5, with “The treatment of LOX-IMVI-tumor-bearing mice was initiated on DPI (Day Post Implantation) 11. Body” for “Body”
Aplidine was provided in the form of vials of lyophilized aplidine powder which was reconstituted in Cremophor EL/ethanol/water (CEW) 15/15/70 to a concentration of 0.5 mg/ml. The aplidine solution in CEW was diluted in 0.9% Saline to the dosing formulation concentrations, being the final proportion of CEW of 0.18/0.18/0.84.
as §3
Mean, standard deviation and standard error of the mean were determined for tumor volume for all animal groups at all assessments. Student's t test was performed on tumor volumes at each measurement day, including at the end of the study, to determine whether there were any statistically significant differences between combination treatment groups and single monotherapy treatment groups.
The definition and criteria for the evaluation of potentiation and the degree of additivity for the combination therapy were the same as those disclose in Example 1.

[5] = tested on: ALL-MOLT4 cells; conditions: mechanistic studies; cited from earlier work
[6] = tested on: A498 human renal tumor xenograft; assay: Aplidine with sunitinib, A498 xenograft in athymic nude mice (Example 2); assay type: in vivo; conditions: doses tested; sunitinib 40 mg/kg
Method: as §1, §2, §5, §6, §3, §4

[7] = G2: aplidine 0.060 mg/kg/day IP

CC[C@H](C)[C@H]1NC(=O)[C@@H](NC(=O)[C@@H](CC(C)C)N(C)C(=O)[C@@H]2CCCN2C(=O)C(C)=O)[C@@H](C)OC(=O)[C@H](Cc2ccc(OC)cc2)N(C)C(=O)[C@@H]2CCCN2C(=O)[C@H](CC(C)C)NC(=O)[C@@H](C)C(=O)[C@H](C(C)C)OC(=O)C[C@@H]1O [aplidine, dehydrodidemnin B] (Pyruvoyl-P[dNMeL]T[X1]LP[NMeY](Me); ester 3-C)
concentration with in vitro cytotoxic activity [1]: 5 nM | antitumor activity as single agent (monotherapy) [2]: inactive | antitumor activity as single agent (monotherapy) [3]: refractory | % T/C on day 11 [4, 7]: 102.9% | % T/C on day 14 [4, 7]: 82.9% | % T/C on day 18 [4, 7]: 79.3% | % T/C on day 20 [4, 7]: 98.5% | % T/C on day 22 [4, 7]: 102.0% | % T/C on day 25 [4, 7]: 105.4% | % Inhibition G2 ([4]; day 11): −2.9% | % Inhibition G2 ([4]; day 14): 17.1% | % Inhibition G2 ([4]; day 18): 20.7% | % Inhibition G2 ([4]; day 20): 1.5% | % Inhibition G2 ([4]; day 22): −2.0% | % Inhibition G2 ([4]; day 25): −5.4% | antitumor activity as single agent (monotherapy) [4]: inactive | VEGF secretion [5]: block VEGF secretion | antitumor activity as single agent (monotherapy) [6]: no effect

CNC(=O)c1cc(Oc2ccc(NC(=O)Nc3ccc(Cl)c(C(F)(F)F)c3)cc2)ccn1 [sorafenib]
% T/C on day 11 ([4]; G3: sorafenib 60 mg/kg/day PO): 98.6% | % T/C on day 14 ([4]; G3: sorafenib 60 mg/kg/day PO): 101.2% | % T/C on day 18 ([4]; G3: sorafenib 60 mg/kg/day PO): 77.7% | % T/C on day 20 ([4]; G3: sorafenib 60 mg/kg/day PO): 71.7% | % T/C on day 22 ([4]; G3: sorafenib 60 mg/kg/day PO): 64.8% | % T/C on day 25 ([4]; G3: sorafenib 60 mg/kg/day PO): 73.3% | % T/C on day 14 ([4]; G4: sorafenib 30 mg/kg/day PO): 96.9% | % T/C on day 18 ([4]; G4: sorafenib 30 mg/kg/day PO): 77.4% | % T/C on day 20 ([4]; G4: sorafenib 30 mg/kg/day PO): 75.9% | % T/C on day 22 ([4]; G4: sorafenib 30 mg/kg/day PO): 77.3% | % T/C on day 25 ([4]; G4: sorafenib 30 mg/kg/day PO): 93.4% | antitumor activity as single agent (monotherapy) [4]: inactive | % Inhibition G4 ([4]; day 11): −2.1% | % Inhibition G4 ([4]; day 14): 3.1% | % Inhibition G4 ([4]; day 18): 22.6% | % Inhibition G4 ([4]; day 20): 24.1% | % Inhibition G4 ([4]; day 22): 22.7% | % Inhibition G4 ([4]; day 25): 6.6% | % Inhibition G3 ([4]; day 11): 1.4% | % Inhibition G3 ([4]; day 14): −1.2% | % Inhibition G3 ([4]; day 18): 22.3% | % Inhibition G3 ([4]; day 20): 28.3% | % Inhibition G3 ([4]; day 22): 35.2% | % Inhibition G3 ([4]; day 25): 26.7%
